Results reported in patent US9982265B2, “Inhibition of Bruton's tyrosine kinase (Btk) in the lung to treat severe lung inflammation and lung injury” (BOARD OF REGENTS, THE UNIVERSITY OF TEXAS SYSTEM, priority 2014, dated 2018).

What was measured:
[1] = tested on: mice with LPS/IC induced ALI; test: Two hit model of LPS/IC induced acute lung injury, Lung Injury Score from pulmonary histopathology; format: in vivo; details: Table 5; intranasal treatment after LPS, before ICs; samples 14 h after IC; score 0 to 2; means ± SD, 4-5 animals per group
Description: BALB/c mice (Taconic Germantown, N.Y.) were first injected intraperitoneally (i.p.) with either LPS or saline and 8 h later received anti-KC:KC immune complexes or saline (control) by intranasal (i.n.) route. Anti-KC:KC immune complexes were prepared according to the protocol routinely used in our laboratory (28). Some mice received Btk specific siRNA intranasally. In other experiments the animals were treated i.n. with siRNA specific for Btk (see SEQ ID NOs:18-25) or MMP-9 (Invitrogen), both conjugated (T3™-MAX Conjugation Kit (Bioo Scientific Corporation, Austin, Tex.) to F(ab′)2 fragments of anti-mouse neutrophil antibody Ly-6G1A8). F(ab′)2 fragments alone or conjugated to control siRNA (SEQ ID NO's 26 and 27) (Invitrogen) served as controls of the treatment. Two or fourteen hours after i.n. administration of either immune complexes or saline, the animals were euthanized and samples collected for further evaluation. To study role of neutrophil FcγRIII receptors neutrophils were first depleted by i.p. injection of vinblastine (31) followed by adoptive transfer of cells deficient in FcγRIII receptors prepared as described below. […] Lung dysfunction was assessed by analysis of pulmonary histopathology.
Pulmonary Histopathology: Lungs were fixed in ExCellPlus (AMTS, Lodi, Calif.), embedded in paraffin, and sectioned at 5 μm. […] The images of stained sections were evaluated for the presence of alveolar exudate, infiltration of inflammatory cells, and interstitial thickening. Lung Injury Score (LIS) was assessed as described earlier (28). Most images were assessed at magnification of over 400×. […] At the minimum twenty sections from each group of mice were evaluated and 4 investigators participated in the analysis of 50 or more fields per group. According to recommendation of “An Official American Thoracic Society Workshop Report: Features and Measurements of Experimental Acute Lung Injury in Animals” (Am J Respir Cell Mol Biol 44 725-738, 2011) more than 20 high power fields were independently scored (as described above) and at least 50% of each field was occupied by lung alveoli. […]

Btk = test: Expression of Btk / pBtk in alveolar neutrophils of treated ALI mice, laser confocal microscopy; format: in vivo; details: LPS/IC ALI; 2 h after administration of ICs; FIG. 4B
Description: (§1) Laser Confocal Microscopy: Purified alveolar neutrophils mounted on cytospins were incubated with the following primary antibodies: anti-mouse Btk, anti-mouse MyD88, anti-mouse MMP-9 (Santa Cruz Biotechnology), and anti-mouse pBtk (Invitrogen, Grand Island, N.Y.). Species specific antibodies conjugated with fluorescent dyes were subsequently applied to slides. Lung tissue sections, processed as routinely done in our laboratory (26, 28), were incubated with anti-mouse FcγRIII antibody (R&D Systems, Minneapolis, Minn.), or anti-mouse MMP-9 antibody (Santa Cruz Biotechnology), or with anti-neutrophil (Ly6G1A8) antibody (Bio X Cell, West Lebanon, N.H.) followed by fluorescence dye-conjugated secondary antibodies. Hoechst 33342 (Calbiochem, San Diego, Calif.) was employed to stain nuclei. Laser confocal microscopy was performed using PerkinElmer Ultra VIEW LCI confocal imaging system with Nikon TE2000-S fluorescence microscope and PlanApox60 immersion oil objective (numerical aperture [NA] 1.4) at room temperature. Ultra VIEW Imaging Suite software (version 5.5.0.4) was used for image processing.
Laser confocal microscopy was employed to confirm the effectiveness of Btk blocking in alveolar neutrophils. […] The effectiveness of Btk silencing in alveolar neutrophils was 92%. […] These experiments were performed at 2 h after administration of ICs.

MMP-9 = test: Expression of MMP-9 in alveolar neutrophils of treated ALI mice, laser confocal microscopy; format: in vivo; details: LPS/IC ALI; FIGS. 6A and B
Description: as §1
Neutrophils are implicated in ALI because of various substances released from granules into the area of inflammation. MMP-9 (gelatinase B) is one of the most extensively studied MMPs in the context of ALI. […]

thrombomodulin (TM) = test: Thrombomodulin in BAL fluid by Western blot, flu induced ALI; format: in vivo, mice; details: FIG. 13

Cont siRNA: control siRNA #8 (SEQ ID NO:26/27) conjugated to F(ab′)2 fragments of Ly6G1A8 (chain 1 UUCCUCUCCACGCGCAGUACAUUUA; chain 2 AAGGAGAGGUGCGCGUCAUGUAAAU; conjugated to antibody F(ab')2 fragment, attachment not given here; one strand is listed 3' to 5')
Lung Injury Score: Edema fluid [1]: 1.337 ± 0.170 | Lung Injury Score: Inflammatory infiltration [1]: 1.824 ± 0.141 | Lung Injury Score: Thickening of alveolar septa [1]: 1.607 ± 0.276 | Btk in lung neutrophils (Btk): normal levels | MMP-9 expression in lung neutrophils (MMP-9): detectable | levels of TM in BAL fluid (thrombomodulin (TM)): significantly increased levels
